# According to patent US9011880B2, “Compounds and methods for treating cancer” (IGF Oncology, LLC, priority 2003, dated 2015):
# Legend:
# [1] = tested on: MDA-MB-231 breast cancer cells; conditions: cells incubated with insulin; cited from earlier work
# [2] = target: T1, IGF-1R (Homo sapiens, UniProt P08069); assay: Competitive binding assay to IGF-1R on MCF7 cell monolayers; conditions: competition against radiolabelled wild-type IGF-1, MCF7 cells
# T1 construct: endogenous in cells; host or cells: MCF7 (human breast cancer cell line), near-confluent monolayers
# T1 sequence (P08069 31-736 limits assumed): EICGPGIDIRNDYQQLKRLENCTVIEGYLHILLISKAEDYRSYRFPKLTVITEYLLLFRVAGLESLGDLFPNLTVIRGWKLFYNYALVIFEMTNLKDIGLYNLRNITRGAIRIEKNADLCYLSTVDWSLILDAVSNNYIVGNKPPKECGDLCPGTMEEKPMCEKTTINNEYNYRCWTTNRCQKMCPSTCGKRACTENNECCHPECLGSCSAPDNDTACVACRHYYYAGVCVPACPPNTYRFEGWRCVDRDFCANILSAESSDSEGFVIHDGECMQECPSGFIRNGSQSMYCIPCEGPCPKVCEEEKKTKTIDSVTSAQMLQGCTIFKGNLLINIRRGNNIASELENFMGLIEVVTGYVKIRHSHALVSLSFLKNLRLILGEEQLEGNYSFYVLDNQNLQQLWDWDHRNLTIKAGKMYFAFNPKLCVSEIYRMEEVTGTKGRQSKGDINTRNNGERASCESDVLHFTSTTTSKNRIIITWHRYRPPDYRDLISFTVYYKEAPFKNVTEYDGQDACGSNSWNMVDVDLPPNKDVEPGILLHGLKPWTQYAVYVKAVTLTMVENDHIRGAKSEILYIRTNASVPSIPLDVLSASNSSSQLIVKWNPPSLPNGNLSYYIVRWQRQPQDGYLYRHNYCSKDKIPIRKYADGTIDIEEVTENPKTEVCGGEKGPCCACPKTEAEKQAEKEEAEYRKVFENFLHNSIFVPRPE
# T1 sequence (P08069 741-1367 limits assumed): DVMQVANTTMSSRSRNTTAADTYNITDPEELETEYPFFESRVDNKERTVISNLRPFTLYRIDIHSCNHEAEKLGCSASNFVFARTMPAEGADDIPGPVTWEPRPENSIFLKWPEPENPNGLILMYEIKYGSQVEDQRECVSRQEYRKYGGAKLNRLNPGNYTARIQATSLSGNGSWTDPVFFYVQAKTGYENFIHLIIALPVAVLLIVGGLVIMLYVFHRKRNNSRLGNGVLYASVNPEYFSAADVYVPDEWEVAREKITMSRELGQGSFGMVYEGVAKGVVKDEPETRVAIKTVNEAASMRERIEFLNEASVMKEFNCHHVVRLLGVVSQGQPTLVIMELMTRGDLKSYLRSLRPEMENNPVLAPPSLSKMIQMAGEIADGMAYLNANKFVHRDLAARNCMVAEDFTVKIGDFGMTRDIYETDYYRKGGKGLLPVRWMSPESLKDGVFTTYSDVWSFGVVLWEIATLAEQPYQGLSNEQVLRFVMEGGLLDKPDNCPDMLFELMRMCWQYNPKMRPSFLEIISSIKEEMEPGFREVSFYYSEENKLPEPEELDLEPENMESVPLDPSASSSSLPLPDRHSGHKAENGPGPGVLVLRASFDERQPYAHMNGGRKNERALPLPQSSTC
# Protocol: MCF7 cells were plated in a 24-well plate and incubated overnight at 37° C. in a 6.5% CO2 humidified atmosphere in DMEM+glutamine with 10% fetal calf serum (FCS) at a cell number to generate close to confluent monolayers. Cells were washed twice and placed in 0.1 M HEPES-NaOH, pH 7.5, 120 mM NaCl, 5 mM KCl, 1.2 mM MgSO4, 0.1% bovine serum albumin (binding buffer). The plate was preincubated at 4° C. for 1 hour. For the assay wells, long-R3-IGF-1 or IGF-MTX conjugate was added at the indicated concentration in binding buffer (positive controls had no addition). I^125-labeled IGF-1 was then added in the amount of 0.03 μCi per well. Plates were incubated at 4° C. overnight, and then washed twice in binding buffer. Cells were lysed with 300 mM NaOH, 1% SDS. The lysate of each well was counted by scintillation counting. Each condition was assayed in duplicate.
# A competition binding assay between the IGF-MTX conjugate and radiolabelled IGF-1 was performed as described in the Materials and Methods. MCF7 cells were grown to near confluence, and incubated with unconjugated long-R3-IGF-1 or conjugated IGF-MTX in competition with radiolabelled wild-type IGF-1 (FIG. 9).
# [3] = tested on: LNCAP cells; assay: LNCAP proliferation in vitro (Example 5, cell counting kit-8)
# Protocol: LNCAP cells were plated in a 96-well plate at 3,000 cells per well in RPMI medium supplemented with 10% fetal bovine serum (FBS). After incubation overnight, the medium in the wells was replaced with 100 μl per well of RPMI supplemented with 0.1% FBS. […] After incubation for 4 days, cell proliferation was assayed with the cell counting kit-8 (Dojindo Molecular Technologies, Gaithersburg, Md.).
# [4] = tested on: LNCAP cells; assay: In vitro proliferation assay, LNCaP (Example 8); type: cell-based, human
# Protocol: LNCaP, MCF7 and MCF7-L cell lines were plated, respectively, in a 96-well plate at 5,000 cells per well in RPMI+glutamine+10% FCS medium in 100 μl. After 24 hours, 100 μl fresh medium was added containing no drug (control), IGF-MTX or MTX at the indicated concentration.
# [5] = tested on: MCF7-L tumors; assay: MCF7-L xenograft tumor growth in nu/nu mice; type: in vivo, mouse; conditions: day 22; IGF-MTX 10 nmol of MTX/g or free MTX 40 nmol/g, tail vein, days 0 and 5
# Protocol: MCF7 cells (human breast adenocarcinoma cell line) were grown in Eagle's minimal essential medium supplemented with 0.1 mg/ml insulin and 10% FCS. The estrogen-dependent MCF7-L cell line was a gift from Deepali Sachdev of the University of Minnesota. MCF7-L cells were grown in modified IMEM medium (Invitrogen, Carlsbad, Calif., USA) supplemented with 0.1 mg/ml insulin. LNCaP cells (metastatic human prostatic adenocarcinoma) were grown in RPMI supplemented with glutamine and 10% FCS (Invitrogen, Carlsbad, Calif., USA). Cells were grown at 37° C. in a 5% CO2 humidified atmosphere. In each case, cells were grown to approximately two-thirds confluence, harvested by trypsinization, washed with rich medium and then washed twice with PBS and resuspended in phosphate buffered saline in BD matrigel matrix (Becton Dickinson, Franklin Lakes, N.J., USA). Cells were injected intradermally in mice on the back. An estrogen pellet (0.5 mg estradiol, 60-day release, Innovative Research of America, Sarasota, Fla., USA) was implanted subcutaneously between the shoulder blades two days before implanting MCF7 and MCF7-L cells. MCF7 and MCF7-L cells were implanted in 8-week-old female nu/nu mice. LNCaP cells were implanted in 8-week-old male nu/nu mice. […] MTX was dissolved in PBS. Untreated vehicle controls received 2 mM HCl, 1% glycerol. […]
# [6] = tested on: LNCAP tumors; assay: LNCaP xenograft tumor growth in nu/nu mice; type: in vivo, mouse; conditions: for fold lower dose at which it is or appears more effective than free MTX: LNCaP xenografts (prostate cancer model in mice)
# Protocol: (§1) MCF7 cells (human breast adenocarcinoma cell line) were grown in Eagle's minimal essential medium supplemented with 0.1 mg/ml insulin and 10% FCS. The estrogen-dependent MCF7-L cell line was a gift from Deepali Sachdev of the University of Minnesota. MCF7-L cells were grown in modified IMEM medium (Invitrogen, Carlsbad, Calif., USA) supplemented with 0.1 mg/ml insulin. LNCaP cells (metastatic human prostatic adenocarcinoma) were grown in RPMI supplemented with glutamine and 10% FCS (Invitrogen, Carlsbad, Calif., USA). Cells were grown at 37° C. in a 5% CO2 humidified atmosphere. In each case, cells were grown to approximately two-thirds confluence, harvested by trypsinization, washed with rich medium and then washed twice with PBS and resuspended in phosphate buffered saline in BD matrigel matrix (Becton Dickinson, Franklin Lakes, N.J., USA). Cells were injected intradermally in mice on the back. An estrogen pellet (0.5 mg estradiol, 60-day release, Innovative Research of America, Sarasota, Fla., USA) was implanted subcutaneously between the shoulder blades two days before implanting MCF7 and MCF7-L cells. MCF7 and MCF7-L cells were implanted in 8-week-old female nu/nu mice. LNCaP cells were implanted in 8-week-old male nu/nu mice. […] MTX was dissolved in PBS. Untreated vehicle controls received 2 mM HCl, 1% glycerol. Drug was administered intravenously by tail-vein injection in a volume of 12.5 μl per gram mouse weight. All studies were approved by the University of Minnesota Animal Care and Use Committee and conformed to relevant ethical guidelines.
# In a final in vivo study, prostate cancer LNCaP cells were implanted intradermally on day 0 in mice, which were then randomized to different treatment groups.
# [7] = IGF-MTX- and MTX-related toxicity in mice (ill effects, body weight); conditions: mouse, in vivo
# Protocol: as §1
# [8] = tested on: MCF7 tumors; assay: MCF7 xenograft tumor growth in nu/nu mice; type: in vivo, mouse
# Protocol: as §1
# Three in vivo studies were performed to assess the targeting of MTX with long-R3-IGF-1. In the initial preliminary study, breast cancer MCF7 cells were implanted intradermally in the backs of nude mice.
molecule,measurement,setting,value
Cc1c2ccncc2c(C)c2c1[nH]c1ccccc12 [elipticine],stimulation of uptake,[1],2 fold
IGF-MTX,binding to the IGF receptor compared with long-R3-IGF-1,[2],bound more tightly to the IGF receptor than long-R3-IGF-1 at most concentrations
same,Cell number (relative units),"[3]; Minimal med. (0.1% FBS), MTX conc. 2 nM",.677 ± .057 relative units
same,Cell number (relative units),"[3]; Minimal med. (0.1% FBS), MTX conc. 8 nM",.794 ± .028 relative units
same,Cell number (relative units),"[3]; Minimal med. (0.1% FBS), MTX conc. 32 nM",.921 ± .014 relative units
same,Cell number (relative units),"[3]; Minimal med. (0.1% FBS), MTX conc. 125 nM",.921 ± .014 relative units
same,Cell number (relative units),"[3]; Minimal med. (0.1% FBS), MTX conc. 500 nM",.635 ± .038 relative units
same,Cell number (relative units),"[3]; Minimal med. (0.1% FBS), MTX conc. 2000 nM",.255 ± .014 relative units
same,Cell number (relative units),"[3]; Rich medium (10% FBS), MTX conc. 2 nM",0.716 ± .021 relative units
same,Cell number (relative units),"[3]; Rich medium (10% FBS), MTX conc. 8 nM",0.674 ± .036 relative units
same,Cell number (relative units),"[3]; Rich medium (10% FBS), MTX conc. 32 nM",1.248 ± .018 relative units
same,Cell number (relative units),"[3]; Rich medium (10% FBS), MTX conc. 125 nM",0.891 ± .017 relative units
same,Cell number (relative units),"[3]; Rich medium (10% FBS), MTX conc. 500 nM",0.381 ± .008 relative units
same,Cell number (relative units),"[3]; Rich medium (10% FBS), MTX conc. 2000 nM",0.234 ± .004 relative units
same,inhibition of proliferation compared to untreated control cells,[4]; LNCaP,inhibited proliferation of LNCaP cells
same,higher concentration than free MTX required to achieve the same inhibitory effect,[4]; LNCaP cells in vitro,about 2 times
same,IC50,"[4]; LNCaP, RPMI + 10% FCS, 48 hours with drug, IGF-MTX as concentration of MTX groups",~1000 nM
same,MCF7-L tumor growth inhibition,[5],inhibited about equally
same,LNCaP tumor growth inhibition,"[6]; 1.28 nmol/g (as MTX), single tail vein injection on day 5",did not inhibit tumor growth
same,"LNCaP tumor size compared to mice treated with higher doses of free MTX (50, 20 or 8 nmol/g)","[6]; 3.2 nmol/g (as MTX), single tail vein injection on day 5",much smaller
same,"LNCaP tumor size compared to mice treated with higher doses of free MTX (50, 20 or 8 nmol/g)","[6]; 8 nmol/g (as MTX), single tail vein injection on day 5",much smaller
same,fold lower dose at which more effective than free MTX (statistically significant),"[6]; 8 nmol/g IGF-MTX vs. 50 nmol/g MTX, day 98, listed as IGF-methotrexate conjugate",6.5 fold
same,fold lower dose at which it is or appears more effective than free MTX,[6]; listed as IGF-MTX conjugate,more than 15 fold
same,fold lower dose at which it is or appears more effective than free MTX,[6]; listed as IGF-methotrexate conjugate,15 fold
same,"Average weight of mice, Day 0",[7],17.8 g
same,"Average weight of mice, Day 4",[7],18.6 g
same,"Average weight of mice, Day 20",[7],20.1 g
same,MCF7 tumor growth,"[8]; 10 nmol of MTX/g intravenous, days 0, 4 and 8, 12 days of observation",showed no signs of tumor growth on average
same,fold lower molar dosage at which more effective than free MTX,[8]; MCF7 xenografts,4 fold
same,difference in tumor volume on average between IGF-MTX conjugate-treated group and MTX-treated group,"[8]; day 12, IGF-MTX 10 nmol of MTX/g vs free MTX 40 nmol/g",~8 fold
